# According to patent US9801898B2, “Glutamate dehydrogenase 1 inhibitors and methods of treating cancer” (Emory University, priority 2015, dated 2017):
# “Also recorded” adds a separate entry of the source.
# Legend:
# GPx1 [1] = biological target: T1, GPx1 (Homo sapiens, UniProt P07203); assay: Radiometric 14C-fumarate/14C-alpha-KG-GPx1 binding assay
# T1 construct: made in house; host or cells: 293T cells (transfected)
# T1 sequence (P07203 1-203): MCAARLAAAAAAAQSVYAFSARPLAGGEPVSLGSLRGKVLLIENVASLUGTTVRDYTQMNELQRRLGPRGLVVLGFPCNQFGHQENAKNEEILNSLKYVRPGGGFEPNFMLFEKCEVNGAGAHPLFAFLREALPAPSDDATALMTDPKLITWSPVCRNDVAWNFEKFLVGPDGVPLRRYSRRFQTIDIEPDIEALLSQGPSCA
# Text: The beads were then washed with TBS buffer. The bead-bound GPx1 protein was eluted with 10 microg flag peptides, and radioactivity was detected by liquid scintillation counting.
# GPx1 [2] = biological target: T1, GPx1; assay: Activity of purified GPx1 in the presence of metabolites; assay type: biochemical; settings: physiological concentrations of metabolite; GPx1 from mammalian cells or human erythrocytes
# Experimental: (§1) GDH1 enzyme activity assay was performed. Total cell lysates (20 microg) or 100 ng of purified GDH1 was added to a reaction mixture containing 50 mM triethanolamine (pH 8.0), 100 mM ammoniumacetate, 100 microM NADPH, and 2.6 mM EDTA. […] GPx, SOD, TRX, GSR, and CAT enzyme activities were determined by using commercially available kits from Biovision according to the manufacturer's instructions. PRX enzyme activity was assayed by coupling its activity to oxidation of NADPH via TRXs.
# GPx activity in GDH1 knockdown cells.
# fumarate hydratase (FH) = biological target: T2, fumarate hydratase (FH) (Homo sapiens, UniProt P07954); assay: FH enzyme activity in vitro; assay type: biochemical
# T2 sequence (P07954 45-510): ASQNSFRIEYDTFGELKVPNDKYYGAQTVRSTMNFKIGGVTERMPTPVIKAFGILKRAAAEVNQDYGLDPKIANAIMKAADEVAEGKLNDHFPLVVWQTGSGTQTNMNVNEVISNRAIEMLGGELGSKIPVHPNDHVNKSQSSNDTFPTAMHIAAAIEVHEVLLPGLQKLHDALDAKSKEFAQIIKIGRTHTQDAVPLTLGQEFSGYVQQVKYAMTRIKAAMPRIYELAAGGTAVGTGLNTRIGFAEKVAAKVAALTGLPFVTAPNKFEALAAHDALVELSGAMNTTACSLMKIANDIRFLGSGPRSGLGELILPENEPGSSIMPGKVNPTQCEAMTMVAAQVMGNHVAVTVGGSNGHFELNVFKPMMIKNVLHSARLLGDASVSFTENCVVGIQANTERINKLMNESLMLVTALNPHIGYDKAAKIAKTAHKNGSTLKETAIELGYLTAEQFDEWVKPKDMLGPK
# GDH1 [3] = biological target: T3, GDH1 (Homo sapiens, UniProt P00367); settings: cited from earlier work
# [4] = biological target: T4, 6-phosphogluconate dehydrogenase (6PGD) (Homo sapiens, UniProt P52209); assay: 6PGD enzyme activity in vitro; assay type: biochemical
# T4 sequence (P52209 1-483): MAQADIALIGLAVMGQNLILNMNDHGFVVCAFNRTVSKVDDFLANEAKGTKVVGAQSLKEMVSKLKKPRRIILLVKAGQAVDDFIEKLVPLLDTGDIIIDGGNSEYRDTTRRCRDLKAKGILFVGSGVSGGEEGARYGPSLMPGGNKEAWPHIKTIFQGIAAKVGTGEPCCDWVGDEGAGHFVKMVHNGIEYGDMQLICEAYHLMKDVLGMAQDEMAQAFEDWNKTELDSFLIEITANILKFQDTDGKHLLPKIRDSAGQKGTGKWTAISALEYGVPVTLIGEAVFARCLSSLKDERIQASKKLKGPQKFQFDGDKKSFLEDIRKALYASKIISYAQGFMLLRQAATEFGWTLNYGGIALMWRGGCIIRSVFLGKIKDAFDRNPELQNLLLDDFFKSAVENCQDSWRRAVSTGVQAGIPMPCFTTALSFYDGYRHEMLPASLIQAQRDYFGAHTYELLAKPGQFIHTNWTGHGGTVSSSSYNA
# [5] = system: GDH1 knockdown cells (H1299, MDA-MB231); assay: Rescue experiments in GDH1 knockdown cancer cells; assay type: cell-based, human
# Experimental: (§2) Adherent cells or leukemia cells were seeded in six-well plate, and cell numbers were determined by trypan blue exclusion using TC10 automated cell counter (Bio-Rad).
# [6] = system: H1299 and MDA-MB231 cells; assay: Fumarate, GPx activity and ROS levels in R162-treated cells; assay type: cell-based, human
# Experimental: as §1
# [7] = system: H1299 GDH1 knockdown xenograft; assay: NAC rescue in H1299 GDH1 knockdown xenograft mice; assay type: in vivo; settings: NAC 10 mg/ml drinking water
# Experimental: Nude mice (athymic nu/nu, female, 4-6 weeks old; Harlan) were subcutaneously injected with H1299 cells harboring empty vector on the left flank, and cells with stable knockdown of GDH1 on the right flank, respectively. For the NAC rescue experiment, mice of the NAC rescue group were treated with NAC drinking water at 10 mg/ml from 3 days after H1299-GDH1 shRNA cells injection for 42 days. […] Tumor growth was recorded by measurement of two perpendicular diameters of the tumors, and tumor size was calculated. The tumors were harvested and weighed at the experimental endpoint.
# Nude mice were subcutaneously injected with control H1299 cells harboring empty vector or GDH1 knockdown cells. NAC at a concentration of 10 mg/ml was administered via drinking water to half of the mice injected with GDH1 knockdown cells.
# GDH1 [8] = biological target: T3, GDH1; assay: GDH1 enzyme activity assay with purified GDH1; assay type: biochemical; settings: for potency and specificity for GDH1 inhibition in comparison of purpurin, R162 and EGCG: in vitro and in cancer cells; for inhibitory effect on GDH1 enzyme activity in vitro: purified GDH1
# Experimental: as §1
# Cell permeability = assay type: in vitro ADME
# GDH1 [9] = biological target: T3, GDH1; assay: Tryptophan fluorescence binding assay; settings: purified GDH1, tryptophan fluorescence binding
# Experimental: Purified GDH1 was incubated with increasing concentrations of purpurin.
# [10] = In vivo toxicity study (hematology, histopathology); design: species or system mice
# Experimental: The in vivo efficacy of R162 in the treatment of xenograft tumor mouse models was tested. For initial in vivo toxicity studies, 30 mg/kg/day of R162 was administered to mice for 30 days by intraperitoneal injection.
# [11] = system: mononucleocytes in peripheral blood samples from healthy human donors; assay: Cell viability of mononucleocytes from healthy donors; assay type: cell-based
# [12] = system: primary leukemia cells from myeloid leukemia patients; assay: Cell viability of primary leukemia cells; assay type: cell-based, human
# H1299 xenograft = H1299 xenograft nude mice, R162 treatment; assay type: in vivo
# Experimental: Nude mice (athymic nu/nu, female, 4-6 weeks old; Harlan) were subcutaneously injected with H1299 cells harboring empty vector on the left flank, and cells with stable knockdown of GDH1 on the right flank, respectively. For the NAC rescue experiment, mice of the NAC rescue group were treated with NAC drinking water at 10 mg/ml from 3 days after H1299-GDH1 shRNA cells injection for 42 days. To evaluate the efficacy of R162, the drug was administered from a day after H1299 cells injection by daily intraperitoneal injection of 30 mg/kg for 35 days. Fifty percent of DMSO in PBS was as a diluent control. Tumor growth was recorded by measurement of two perpendicular diameters of the tumors, and tumor size was calculated. The tumors were harvested and weighed at the experimental endpoint. Tumor proliferation was determined by Ki-67 IHC staining.
# An in vivo R162 treatment was performed using H1299-xenograft nude mice. A day after xenograft injection, mice were divided into two groups (n=8 per group) and treated with either R162 ([…]) or control DMSO for 35 days.
# mitochondrial GDH = biological target: T5, mitochondrial GDH (Homo sapiens, UniProt P00367); assay: GDH activity in cancer cells treated with compound; assay type: cell-based; settings: compared with purpurin; R162 20 microM
# T5 construct: GDH activity in cancer cells treated with R162 (20 microM); endogenous in cells; host or cells: cancer cells (probably H1299 and MDA-MB231)
# Experimental: as §1
# [13] = system: HaCaT, MRC-5 and HFF cells; assay: Cell viability in control proliferating human cells; assay type: cell-based; settings: MRC-5, HFF control proliferative human cells
# [14] = system: human lung cancer, breast cancer, and leukemia cell lines; assay: Cell viability in cancer cell lines; assay type: cell-based
# GDH1 [15] = biological target: T3, GDH1; assay: Thermal melt shift assay; assay type: binding; settings: increasing concentrations of R162
# Experimental: To examine the interaction between GDH1 and R162, a thermal melt shift assay was performed.
# [16] = system: H1299 and MDA-MB231 cells; assay: Cell proliferation assay (cell counting); assay type: cell-based, human
# Experimental: as §2
# [17] = R162 20 mg/kg/day for 35 days vs control DMSO
# T3 sequence (P00367 54-558): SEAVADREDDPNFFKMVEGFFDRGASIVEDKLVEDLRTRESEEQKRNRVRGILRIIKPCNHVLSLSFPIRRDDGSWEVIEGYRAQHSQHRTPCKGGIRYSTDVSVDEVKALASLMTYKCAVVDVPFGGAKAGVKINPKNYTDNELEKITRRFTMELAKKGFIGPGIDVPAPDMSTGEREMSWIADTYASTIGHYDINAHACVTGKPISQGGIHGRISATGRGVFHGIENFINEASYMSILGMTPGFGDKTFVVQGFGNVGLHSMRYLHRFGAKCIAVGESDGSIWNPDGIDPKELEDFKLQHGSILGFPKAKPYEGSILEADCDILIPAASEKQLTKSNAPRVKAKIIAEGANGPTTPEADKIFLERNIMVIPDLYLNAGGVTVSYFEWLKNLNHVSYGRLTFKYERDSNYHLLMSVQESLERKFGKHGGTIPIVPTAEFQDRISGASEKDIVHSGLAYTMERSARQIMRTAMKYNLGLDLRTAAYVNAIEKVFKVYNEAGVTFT
# T5 sequence (P00367 54-558): as above
structure (smiles),measurement,setting,value
O=C(O)/C=C/C(=O)O [fumarate],retention of 14C-labeled metabolite on GPx1,GPx1 [1],retained on GPx1
same,Kd,GPx1 [1]; read-out: Kd value of the GPx1-fumarate interaction,75.5 ± 5.22 µM
same,activity of purified human GPx1,GPx1 [2],significantly increased
"O=C(O[C@@H]1Cc2c(O)cc(O)cc2O[C@@H]1c1cc(O)c(O)c(O)c1)c1cc(O)c(O)c(O)c1 [EGCG, epigallocatechin gallate]",effect on activity of FH,fumarate hydratase (FH),significantly affected activity
same,GDH1 inhibition as reported,GDH1 [3],reported to inhibit GDH1 activity
same,effect on activity of 6PGD,[4],significantly affected activity
"CC(=O)N[C@@H](CS)C(=O)O [NAC, N-acetylcysteine]",rescue of increased ROS,[5],significantly rescued
same,rescue of reduced cell proliferation,[5],significantly rescued
same,"rescue of R162 effects (fumarate, GPx activity, ROS, cell proliferation)",[6]; R162-treated H1299 and MDA-MB231 cells,significantly rescued
same,rescue of attenuated tumor growth,[7],partially rescued
"O=C1c2ccccc2C(=O)c2c(O)c(O)cc(O)c21 [purpurin, reference compound]","potency and specificity for GDH1 inhibition in comparison of purpurin, R162 and EGCG",GDH1 [8],more potent and specific
same,inhibitory effect on GDH1 enzyme activity in vitro,GDH1 [8],dramatic inhibitory effects
same,Ki,"GDH1 [8]; recombinant, purified active GDH1, in vitro GDH activity assay",1.9 ± 0.26 µM
same,cell permeability,Cell permeability,not cell permeable
same,Kd,GDH1 [9],11.5 ± 1.17 µM
"C=CCc1ccc2c(c1O)C(=O)c1ccccc1C2=O [R162, 2-allyl-1-hydroxyanthracene-9,10-dione]",mode of inhibition (Lineweaver-Burk plot),GDH1 [8]; different concentrations of GDH1 substrate alpha-KG,mixed model inhibitor
same,"potency and specificity for GDH1 inhibition in comparison of purpurin, R162 and EGCG",GDH1 [8],more potent and specific
same,inhibitory effect on GDH1 enzyme activity in vitro,GDH1 [8],potent GDH1 inhibitor
same,histopathological change,"[10]; 30 mg/kg/day for 30 days, intraperitoneal, vs vehicle",did not result in a significant histopathological change
same,Basophils,"[10]; mice, 30 mg/kg/day",0.105 ± 0.06 ×10^3/μl
same,Eosinophils,"[10]; mice, 30 mg/kg/day",0.21 ± 0.07 ×10^3/μl
same,HCT,"[10]; mice, 30 mg/kg/day",45.95 ± 3.74%
same,HGB,"[10]; mice, 30 mg/kg/day",11.1 ± 1.55 g/dL
same,LYM,"[10]; mice, 30 mg/kg/day",3.145 ± 0.10 ×10^3/μl
same,MCH,"[10]; mice, 30 mg/kg/day",13.35 ± 0.91 pg
same,MCHC,"[10]; mice, 30 mg/kg/day",24.1 ± 1.41 g/dL
same,MCV,"[10]; mice, 30 mg/kg/day",55.35 ± 0.49 fL
same,MONO,"[10]; mice, 30 mg/kg/day",0.165 ± 0.007 ×10^3/μl
same,MPV,"[10]; mice, 30 mg/kg/day",6.05 ± 0.21 fL
same,NEU,"[10]; mice, 30 mg/kg/day",1.71 ± 0.18 ×10^3/μl
same,RBC,"[10]; mice, 30 mg/kg/day",8.3 ± 0.60 ×10^6/μl
same,RDW,"[10]; mice, 30 mg/kg/day",18.5 ± 0.56%
same,WBC,"[10]; mice, 30 mg/kg/day",5.33 ± 0.41 ×10^3/μl
same,cell viability,[11],did not affect cell viability
same,cell viability,[12],decreased cell viability
same,tumor growth,H1299 xenograft; [17],significantly decreased
same,tumor masses,H1299 xenograft; [17],significantly decreased
same,GDH1 activity in resected tumors,H1299 xenograft; xenograft nude mice,effectively inhibited GDH1 activity
same,inhibitory effect on mitochondrial GDH activity in cancer cells,mitochondrial GDH,more potent inhibitory effects
same,cell viability,[13],but not in human proliferating cells
same,cell permeability,Cell permeability,more cell-permeable than purpurin
same,cell viability,[14],attenuated cell viability
same,melting temperature (Tm) of GDH1,GDH1 [15],raised the melting temperature (Tm) in a dose-dependent manner
same,GPx activity,[6]; H1299 and MDA-MB231 cells,attenuated GPx activity
same,intracellular fumarate levels,[6]; H1299 and MDA-MB231 cells,decreased intracellular fumarate levels
same,ROS levels,"[6]; cancer cells (H1299, MDA-MB231) treated with R162",elevated ROS levels; also recorded: increased ROS levels
same,cell proliferation,[16],reduced cell proliferation
